Results published in PubChem BioAssay (NCI).
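Cells were grown in 96-well plates and exposed to each compound for 48 hours at five concentrations; endpoints were interpolated linearly between bracketing concentrations, or set to the highest concentration if not reached. At the GI50, growth is halved. TGI: concentration producing complete growth inhibition.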

Legend:
Experiment in all cases: DTP human tumour cell line panel, 48 h
LOX IMVI melanoma = system: LOX IMVI melanoma
M14 melanoma = system: M14 melanoma
MCF7 breast = system: MCF7 breast
SF-539 CNS = system: SF-539 CNS
SF-295 CNS = system: SF-295 CNS
MDA-MB-231 breast = system: MDA-MB-231 breast
HL-60(TB) leukemia = system: HL-60(TB) leukemia
U251 CNS = system: U251 CNS
NCI/ADR-RES ovarian = system: NCI/ADR-RES ovarian
HCT-15 colon = system: HCT-15 colon

| SMILES | GI50 (LOX IMVI melanoma) | TGI (LOX IMVI melanoma) | GI50 (M14 melanoma) | TGI (M14 melanoma) | GI50 (MCF7 breast) | TGI (MCF7 breast) | GI50 (SF-539 CNS) | TGI (SF-539 CNS) | GI50 (SF-295 CNS) | TGI (SF-295 CNS) | GI50 (MDA-MB-231 breast) | TGI (MDA-MB-231 breast) | GI50 (HL-60(TB) leukemia) | TGI (HL-60(TB) leukemia) | GI50 (U251 CNS) | TGI (U251 CNS) | GI50 (NCI/ADR-RES ovarian) | TGI (NCI/ADR-RES ovarian) | GI50 (HCT-15 colon) | TGI (HCT-15 colon) |
| --- | --- | --- | --- | --- | --- | --- | --- | --- | --- | --- | --- | --- | --- | --- | --- | --- | --- | --- | --- | --- |
| CCCC(=O)Oc1ccc(/C(=C(\C)c2ccc(Cl)cc2)c2ccc(OCCN(CC)CC)cc2)cc1 | 1.85 µM | 3.4 µM | 1.9 µM | 4.36 µM | 0.117 µM | 3.47 µM | 1.94 µM | 3.98 µM | 1.93 µM | 3.81 µM | 2.42 µM | 5.13 µM | 2.23 µM | 5.52 µM | 1.95 µM | 4.06 µM | 4.25 µM | 16.5 µM | 1.68 µM | 3.73 µM |
| CN(C)S(=O)(=O)c1cccc(C(=O)Nc2nc(-c3ccc(F)c(F)c3)cs2)c1 | 24 µM | > 100 µM | 23.5 µM | > 100 µM | 6.01 µM | > 65 µM | 15.3 µM | 58 µM | 2.58 µM | 26.4 µM | 20.6 µM | > 100 µM | 6.08 µM | > 100 µM | 11.5 µM | > 74 µM | 5.32 µM | > 100 µM | > 40.4 µM | > 100 µM |
| COc1ccc([N+](=O)[O-])c2c(NCCCN(C)C)c(C)c(C)nc12 | – | > 100 µM | – | > 100 µM | – | > 100 µM | – | > 100 µM | – | > 100 µM | – | > 100 µM | – | > 100 µM | – | > 100 µM | – | > 100 µM | – | > 100 µM |
| N[C@H]1CCC[C@@H](O)C1O (stereo partly drawn) | – | > 100 µM | – | > 100 µM | – | > 100 µM | – | > 100 µM | – | > 100 µM | – | > 100 µM | – | > 100 µM | – | > 100 µM | – | > 100 µM | – | > 100 µM |
| N#CC1=C(N)NC(=O)C(C#N)C12Nc1ccccc1S2 (stereo not drawn) | 80.1 µM | > 100 µM | 87.9 µM | > 100 µM | 32.7 µM | > 100 µM | > 100 µM | > 100 µM | 50.6 µM | > 100 µM | 29.8 µM | > 100 µM | 91.6 µM | > 100 µM | > 100 µM | > 100 µM | 94.9 µM | > 100 µM | > 100 µM | > 100 µM |
| CCN(Cc1cc(Cl)cc(C)c1O)Cc1c(O)ccc2ccccc12 | – | 38.8 µM | – | 35.9 µM | – | 39.1 µM | – | 30 µM | – | 31.3 µM | – | 35.4 µM | – | 34 µM | – | 31.7 µM | – | 32 µM | – | 30.5 µM |
| O=NNc1ccc(-c2ccccc2)cn1 | – | 28.8 µM | – | 39.2 µM | – | > 23.6 µM | – | 80.8 µM | – | 62.2 µM | – | > 78.1 µM | – | 51.9 µM | – | > 62.5 µM | – | > 43.1 µM | – | 56.1 µM |
| Nc1c(C(=O)c2cccc(-c3cccnc3)c2)cnn1-c1ccc(F)cc1 | > 25 µM | > 25 µM | > 25 µM | > 25 µM | > 25 µM | > 25 µM | > 25 µM | > 25 µM | > 25 µM | > 25 µM | > 25 µM | > 25 µM | > 25 µM | > 25 µM | > 25 µM | > 25 µM | > 20.5 µM | > 25 µM | > 25 µM | > 25 µM |
| O=C(O)CCC(O)=C1S(=O)(=O)OCCOS1(=O)=O | – | > 100 µM | – | > 100 µM | – | > 100 µM | – | > 100 µM | – | > 100 µM | – | > 100 µM | – | > 100 µM | – | > 100 µM | – | > 100 µM | – | > 100 µM |
| COc1ccc(CCN2CCCn3c2nc2ccccc2c3=O)cc1 | 0.0762 µM | > 100 µM | 0.0463 µM | > 100 µM | 0.0295 µM | > 100 µM | 0.0876 µM | 0.432 µM | 0.0597 µM | > 54.2 µM | 0.408 µM | > 100 µM | 0.038 µM | 0.982 µM | 0.0552 µM | – | 0.0432 µM | – | 0.0444 µM | > 100 µM |
